Earlier results in patent publication US20110245279A1, “PREDICTIVE MARKER FOR EGFR INHIBITOR TREATMENT” (priority 2007, published 2011).
Read-outs that look alike come from different tables or passages of the source.

What was measured:
NSCLC [1] = tested on: NSCLC
[2] = patients with cancer receiving the 150 mg/day dose
NSCLC [3] = settings: single agent; NSCLC patients for whom standard therapy for advanced disease has failed
[4] = randomized phase III trial, second line therapy of NSCLC

SMILES: CC(=O)O[C@@]12CO[C@@H]1C[C@H](O)[C@@]1(C)C(=O)[C@H](O)C3=C(C)[C@@H](OC(=O)[C@H](O)[C@@H](NC(=O)OC(C)(C)C)c4ccccc4)C[C@@](O)([C@@H](OC(=O)c4ccccc4)[C@H]21)C3(C)C [docetaxel]
- survival (NSCLC [1]; second line vs best supportive care, after cisplatin-based first-line regimens had failed): improved survival

SMILES: C#Cc1cccc(Nc2ncnc3cc(OCCOC)c(OCCOC)cc23)c1 [Tarceva, erlotinib]
- drug levels in plasma [2]: > 500 ng/mL
- survival (NSCLC [3]): significantly prolongs and improves the survival

SMILES: Nc1nc2[nH]cc(CCc3ccc(C(=O)N[C@@H](CCC(=O)O)C(=O)O)cc3)c2c(=O)[nH]1 [pemetrexed]
- efficacy compared with docetaxel (NSCLC [1]; [4]): clinically equivalent efficacy
- side effects compared with docetaxel (NSCLC [1]; [4]): significantly fewer side effects

SMILES: CCOC(=O)c1ccc(C#Cc2ccc3c(c2)C(C)(C)CCS3)nc1 [tazarotene]
- expression of RARRES1 gene (RARRES1 gene): up regulated
